Test results as given in paper PMC3824154 (Angewandte Chemie (International ed. in English), 2013).

Molecular target: T1, MBP-RebF (Lentzea aerocolonigenes, UniProt Q8KI76)
T1 sequence (Q8KI76 1-170): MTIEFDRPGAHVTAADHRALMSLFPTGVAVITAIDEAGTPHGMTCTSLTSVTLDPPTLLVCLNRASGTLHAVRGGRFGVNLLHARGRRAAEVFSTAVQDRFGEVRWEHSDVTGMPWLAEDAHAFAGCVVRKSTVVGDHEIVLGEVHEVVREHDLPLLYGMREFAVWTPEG
Assay: FAD reduction activity
Format: biochemical

SMILES	FAD reduction activity (turnover) (NADH as electron donor)	FAD reduction activity (turnover) (FAD as electron acceptor)
Cc1cc2nc3c(=O)[nH]c(=O)nc-3n(C[C@H](O)[C@H](O)[C@H](O)COP(=O)(O)OP(=O)(O)OC[C@H]3O[C@@H](n4cnc5c(N)ncnc54)[C@H](O)[C@@H]3O)c2cc1C [FAD]	retained high activity for the NAD-dependent reduction of FAD to FADH2	–
NC(=O)C1=CN([C@@H]2O[C@H](COP(=O)(O)OP(=O)(O)OC[C@H]3O[C@@H](n4cnc5c(N)ncnc54)[C@H](O)[C@@H]3O)[C@@H](O)[C@H]2O)C=CC1 [NADH]	–	MBP-RebF, which uses NADH to reduce FAD to FADH2
